The record followed here is patent publication US10336761B2, “TGFβ receptor antagonist” (BRISTOL-MYERS SQUIBB COMPANY, priority 2015, dated 2019).

This assay has as its target HIS-TGFβR1 T204D (Homo sapiens (Human), UniProt P36897, T204D). The experiment in a line: HTRF probe-displacement assay, HIS-TGFβR1 T204D. The following applies: 1 hour at room temperature. Format: binding.

Chain of HIS-TGFβR1 T204D (P36897 34-503 T204D): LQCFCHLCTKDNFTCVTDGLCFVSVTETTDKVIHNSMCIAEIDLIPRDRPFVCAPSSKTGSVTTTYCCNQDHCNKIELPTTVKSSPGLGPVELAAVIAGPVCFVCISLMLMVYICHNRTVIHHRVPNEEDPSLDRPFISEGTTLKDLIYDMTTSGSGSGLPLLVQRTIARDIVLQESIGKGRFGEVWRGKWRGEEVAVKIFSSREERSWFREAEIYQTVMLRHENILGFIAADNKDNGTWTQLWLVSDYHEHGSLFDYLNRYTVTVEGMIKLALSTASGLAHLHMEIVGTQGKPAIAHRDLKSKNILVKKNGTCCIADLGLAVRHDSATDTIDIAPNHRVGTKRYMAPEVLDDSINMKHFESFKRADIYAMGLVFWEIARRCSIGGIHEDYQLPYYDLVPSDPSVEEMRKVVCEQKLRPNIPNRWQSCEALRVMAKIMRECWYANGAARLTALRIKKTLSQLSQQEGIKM

Regarding `COc1cccc(-c2nc(Nc3ccncc3F)c3c(CNC[C@@H](F)C(C)(C)O)ccn3n2)n1` [Example 120, (3R)-3-fluoro-4-[({4-[(3-fluoropyridin-4-yl)amino]-2-(6-methoxypyridin-2-yl)pyrrolo[2,1-f][1,2,4]triazin-5-yl}methyl)amino]-2-methylbutan-2-ol], the IC50 (usually the concentration needed to halve the response being measured) is 98 nM.
`COc1cccc(-c2nc(Nc3ccncc3F)c3c(CN4CCN(C)CC4)ccn3n2)n1` [Example 121, 3-fluoro-N-[2-(6-methoxypyridin-2-yl)-5-[(4-methylpiperazin-1-yl)methyl]pyrrolo[2,1-f][1,2,4]triazin-4-yl]pyridin-4-amine] displayed an IC50 of 22 nM.
For the molecule `Fc1cnccc1Nc1nc(-c2cccc(C(F)(F)F)n2)nn2ccc(CN3CCC(F)(F)CC3)c12` [Example 123, N-{5-[(4,4-difluoropiperidin-1-yl)methyl]-2-[6-(trifluoromethyl)pyridin-2-yl]pyrrolo[2,1-f][1,2,4]triazin-4-yl}-3-fluoropyridin-4-amine], the IC50 came to 13 nM.
Turning to `CC(C)(O)CNCc1ccn2nc(-c3cccc(C(F)(F)F)n3)nc(Nc3ccncc3F)c12` [Example 124, 1-[({4-[(3-fluoropyridin-4-yl)amino]-2-[6-(trifluoromethyl)pyridin-2-yl]pyrrolo[2,1-f][1,2,4]triazin-5-yl}methyl)amino]-2-methylpropan-2-ol], the IC50 was 6 nM.
Molecule `CC(C)(O)CNCc1ccn2nc(-c3ccccn3)nc(Nc3ccncc3F)c12` [Example 125, 1-[({4-[(3-fluoropyridin-4-yl)amino]-2-(pyridin-2-yl)pyrrolo[2,1-f][1,2,4]triazin-5-yl}methyl)amino]-2-methylpropan-2-ol] displayed an IC50 of 1.6 nM.
Under `CN1CCN(Cc2ccn3nc(-c4ccccn4)nc(Nc4ccncc4F)c23)CC1` [Example 127, 3-fluoro-N-{5-[(4-methylpiperazin-1-yl)methyl]-2-(pyridin-2-yl)pyrrolo[2,1-f][1,2,4]triazin-4-yl}pyridin-4-amine] stands 9.1 nM; under `COc1cccc(-c2nc(Nc3ccncc3F)c3c(C(O)CN4CCN(C)CC4)ccn3n2)n1` (centres unmarked) [Example 128, 1-{4-[(3-fluoropyridin-4-yl)amino]-2-(6-methoxypyridin-2-yl)pyrrolo[2,1-f][1,2,4]triazin-5-yl}-2-(4-methylpiperazin-1-yl)ethan-1-ol], 950 nM; under `COc1cccc(-c2nc(Nc3ccncc3F)c3c(C(O)CN4CCC(F)(F)CC4)ccn3n2)n1` (centres unmarked) [Example 129, 2-(4,4-difluoropiperidin-1-yl)-1-{4-[(3-fluoropyridin-4-yl)amino]-2-(6-methoxypyridin-2-yl)pyrrolo[2,1-f][1,2,4]triazin-5-yl}ethan-1-ol], 38 nM.
Under `COc1cccc(-c2nc(Nc3ccncc3F)c3c(C(O)CNCCN4CCCCC4)ccn3n2)n1` (centres unmarked) [Example 130, 1-{4-[(3-fluoropyridin-4-yl)amino]-2-(6-methoxypyridin-2-yl)pyrrolo[2,1-f][1,2,4]triazin-5-yl}-2-{[2-(piperidin-1-yl)ethyl]amino}ethan-1-ol] stands 540 nM; under `COc1cccc(-c2nc(Nc3ccncc3F)c3c(C(O)CNCCN4CCS(=O)(=O)CC4)ccn3n2)n1` (centres unmarked) [Example 131, 4-{2-[(2-{4-[(3-fluoropyridin-4-yl)amino]-2-(6-methoxypyridin-2-yl)pyrrolo[2,1-f][1,2,4]triazin-5-yl}-2-hydroxyethyl)amino]ethyl}-1,4-thiomorpholine-1,1-dione], 56 nM.
Then `COc1cccc(-c2nc(Nc3ccnc(NCCN4CCC(O)CC4)c3)c3cccn3n2)n1` [Example 132, 1-{2-[(4-{[2-(6-methoxypyridin-2-yl)pyrrolo[2,1-f][1,2,4]triazin-4-yl]amino}pyridin-2-yl)amino]ethyl}piperidin-4-ol], with 700 nM.
On to `COc1cccc(-c2nc(Nc3ccnc(NCC(C)(C)O)c3)c3cccn3n2)n1` [Example 133, 1-[(4-{[2-(6-methoxypyridin-2-yl)pyrrolo[2,1-f][1,2,4]triazin-4-yl]amino}pyridin-2-yl)amino]-2-methylpropan-2-ol], for which the 50% inhibitory concentration (IC50) was 3300 nM.
On to `COc1cccc(-c2nc(Nc3ccnc(NCCC(C)(C)O)c3)c3cccn3n2)n1` [Example 134, 4-[(4-{[2-(6-methoxypyridin-2-yl)pyrrolo[2,1-f][1,2,4]triazin-4-yl]amino}pyridin-2-yl)amino]-2-methylbutan-2-ol], for which the IC50 came out at 360 nM.
Consider `COc1cccc(-c2nc(Nc3ccnc(NCCCN(C)C)c3)c3cccn3n2)n1` [Example 135, 2-N-[3-(dimethylamino)propyl]-4-N-[2-(6-methoxypyridin-2-yl)pyrrolo[2,1-f][1,2,4]triazin-4-yl]pyridine-2,4-diamine], for which the IC50 is 88 nM.
Molecule `COc1cccc(-c2nc(Nc3ccnc(NCCN4CCC(O)CC4)c3)c3c(C)ccn3n2)n1` [Example 136, 1-{2-[(4-{[2-(6-methoxypyridin-2-yl)-5-methylpyrrolo[2,1-f][1,2,4]triazin-4-yl]amino}pyridin-2-yl)amino]ethyl}piperidin-4-ol] gave an IC50 of 720 nM. Compared with the last molecule, the IC50 is about 8.2-fold higher.
Regarding `COc1cccc(-c2nc(Nc3ccnc(NCCN4CCOCC4)c3)c3c(C)ccn3n2)n1` [Example 137, 4-N-[2-(6-methoxypyridin-2-yl)-5-methylpyrrolo[2,1-f][1,2,4]triazin-4-yl]-2-N-[2-(morpholin-4-yl)ethyl]pyridine-2,4-diamine], the IC50 came to 120 nM.
Then `COc1cccc(-c2nc(Nc3ccnc(NCC(C)(C)O)c3)c3c(C)ccn3n2)n1` [Example 138, 1-[(4-{[2-(6-methoxypyridin-2-yl)-5-methylpyrrolo[2,1-f][1,2,4]triazin-4-yl]amino}pyridin-2-yl)amino]-2-methylpropan-2-ol], with 6600 nM; and `COc1cccc(-c2nc(Nc3ccnc(NCCN4CCOCC4)c3)c3cccn3n2)n1` [Example 139, 4-N-[2-(6-methoxypyridin-2-yl)pyrrolo[2,1-f][1,2,4]triazin-4-yl]-2-N-[2-(morpholin-4-yl)ethyl]pyridine-2,4-diamine], with 190 nM.
As to `Cc1nc(-c2nc(Nc3ccncc3C(=O)NCCN3CCCCC3)c3cccn3n2)ccc1F` [Example 141, 4-{[2-(5-fluoro-6-methylpyridin-2-yl)pyrrolo[2,1-f][1,2,4]triazin-4-yl]amino}-N-[2-(piperidin-1-yl)ethyl]pyridine-3-carboxamide], the IC50 stood at 5 nM.
`O=C(NCCN1CCCC1)c1cnccc1Nc1nc(-c2ccccn2)nn2cccc12` [Example 142] gave an IC50 of 19 nM.
As to `CCN(CC)CCNC(=O)c1cnccc1Nc1nc(-c2ccccn2)nn2cccc12` [Example 143, N-[2-(diethylamino)ethyl]-4-{[2-(pyridin-2-yl)pyrrolo[2,1-f][1,2,4]triazin-4-yl]amino}pyridine-3-carboxamide], the IC50 is 19 nM.
Under `O=C(NCCN1CCCCC1)c1cnccc1Nc1nc(-c2ccccn2)nn2cccc12` [Example 144, N-[2-(piperidin-1-yl)ethyl]-4-{[2-(pyridin-2-yl)pyrrolo[2,1-f][1,2,4]triazin-4-yl]amino}pyridine-3-carboxamide] stands 25 nM; under `CC(C)(C)OC(=O)N1CCN(CCNC(=O)c2cnccc2Nc2nc(-c3ccccn3)nn3cccc23)CC1` [Example 145, tert-butyl 4-{2-[(4-{[2-(pyridin-2-yl)pyrrolo[2,1-f][1,2,4]triazin-4-yl]amino}pyridin-3-yl)formamido]ethyl}piperazine-1-carboxylate], 210 nM; under `C[C@@H]1CN(CCNC(=O)c2cnccc2Nc2nc(-c3ccccn3)nn3cccc23)C[C@H](C)O1` [Example 146, N-{2-[cis-2,6-dimethylmorpholin-4-yl]ethyl}-4-{[2-(pyridin-2-yl)pyrrolo[2,1-f][1,2,4]triazin-4-yl]amino}pyridine-3-carboxamide], 170 nM.
Under `O=C(NCCCN1CCS(=O)(=O)CC1)c1cnccc1Nc1nc(-c2ccccn2)nn2cccc12` [Example 148, N-[3-(1,1-dioxo-1,4-thiomorpholin-4-yl)propyl]-4-{[2-(pyridin-2-yl)pyrrolo[2,1-f][1,2,4]triazin-4-yl]amino}pyridine-3-carboxamide] stands 83 nM; under `O=C(NCCCN1CCCC1=O)c1cnccc1Nc1nc(-c2ccccn2)nn2cccc12` [Example 149, N-[3-(2-oxopyrrolidin-1-yl)propyl]-4-{[2-(pyridin-2-yl)pyrrolo[2,1-f][1,2,4]triazin-4-yl]amino}pyridine-3-carboxamide], 49 nM.
With `O=C(NCCCN1CCCC1)c1cnccc1Nc1nc(-c2ccccn2)nn2cccc12` [Example 150], the IC50 stood at 16 nM.
Under `O=C(NCCN1CCNCC1)c1cnccc1Nc1nc(-c2ccccn2)nn2cccc12` [Example 151, N-[2-(piperazin-1-yl)ethyl]-4-{[2-(pyridin-2-yl)pyrrolo[2,1-f][1,2,4]triazin-4-yl]amino}pyridine-3-carboxamide] stands 49 nM; under `Cc1cccc(-c2nc(Nc3ccncc3C(=O)NCCN3CCCC3)c3cccn3n2)n1` [Example 152, 4-{[2-(6-methylpyridin-2-yl)pyrrolo[2,1-f][1,2,4]triazin-4-yl]amino}-N-[2-(pyrrolidin-1-yl)ethyl]pyridine-3-carboxamide], 5.3 nM; under `Cc1cccc(-c2nc(Nc3ccncc3C(=O)NCCN3CCS(=O)(=O)CC3)c3cccn3n2)n1` [Example 153, N-[2-(1,1-dioxo-1,4-thiomorpholin-4-yl)ethyl]-4-{[2-(6-methylpyridin-2-yl)pyrrolo[2,1-f][1,2,4]triazin-4-yl]amino}pyridine-3-carboxamide], 22 nM.
Regarding `Cc1cccc(-c2nc(Nc3ccncc3C(=O)NCC3(O)CCN(C)CC3)c3cccn3n2)n1` [Example 154, N-[(4-hydroxy-1-methylpiperidin-4-yl)methyl]-4-{[2-(6-methylpyridin-2-yl)pyrrolo[2,1-f][1,2,4]triazin-4-yl]amino}pyridine-3-carboxamide], the IC50 is 33 nM.
Then `Cc1cccc(-c2nc(Nc3ccncc3C(=O)NCCN3CCCCC3)c3cccn3n2)n1` [Example 155, 4-{[2-(6-methylpyridin-2-yl)pyrrolo[2,1-f][1,2,4]triazin-4-yl]amino}-N-[2-(piperidin-1-yl)ethyl]pyridine-3-carboxamide], with 6.8 nM.
